According to patent US10155817B2, “Dual-target antibody targeting VEGFR-2 and DLL4 and pharmaceutical composition including same” (PharmAbcine Inc., priority 2012, dated 2018):

B1: Notch-1 Fc: Notch-1 Fc protein used as comparator for binding to hDLL4 (protein)
chain: ARGPRCSQPGETCLNGGKCEAANGTEACVCGGAFVGPRCQDPNPCLSTPCKNAGTCHVVDRRGVADYACSCALGFSGPLCLTPLDNACLTNPCRNGGTCDLLTLTEYKCRCPPGWSGKSCQQADPCASNPCANGGQCLPFEASYICHCPPSFHGPTCRQDVNECGQKPGLCRHGGTCHNEVGSYRCVCRATHTGPNCERPYVPCSPSPCQNGGTCRPTGDVTHECACLPGFTGQNCEENIDDCPGNNCKNGGACVDGVNTYNCRCPPEWTGQYCTEDVDECQLMPNACQNGGTCHNTHGGYNCVCVNGWTGEDCSENIDDCASAACFHGATCHDRVASFYCECPHGRTGLLCHLNDACISNPCNEGSNCDTNPVNGKAICTCPSGYTGPACSQDVDECSLGANPCEHAGKCINTLGSFECQCLQGYTGPRCEIDVNECVSNPCQNDATCLDQIGEFQCICMPGYEGVHCEVNTDECASSPCLHNGRCLDKINEFQCECPTGFTGHLCQ
modifications: left off: a dimerising Fc or GST

Key:
Notch-1 = assay: Promoter activity by Notch-1, luciferase reporter in LS174T cells co-cultured with 293-hDLL4; format: cell-based, human; settings: antibody 20 mg/ml, DAPT 5 mM, co-culture with 293-hDLL4 24 hours, luminescence, versus untreated antibody group, FIG. 9
Experimental: 1×10^5 LS174T cells (colon cancer cell line; ATCC, CL-188™) were incubated in RPMI medium containing 10% of fetal calf serum for 24 hours, and 0.8 μg of Notch Cignal reporter DNA contained in Cignal Reporter Assay Kit (#336841 CCS-014L, QIAGEN) and 2 μl of lipofectamine (#11668-500; Invitrogen) were mixed with 100 μl of opti-MEM media and allowed to stand for 20 minutes, and then 400 μl of opti-MEM was added for transfection to incubate cells for 6 hours. After 6 hours, the medium was replaced with an MEM medium containing 10% fetal calf serum, and incubated overnight. Next day, Tanibirumab and PMC-201 (each of 20 mg/ml) were mixed and pre-treated in 1×10^5 of 293-hDLL4 cells for 1 hour, then co-cultured with LS174T cells transfected with Notch Cignal reporter DNA for 24 hours. DAPT (5 mM) was not pre-treated and 293-hDLL4 cell was mixed with the transfected LS174T cells, and co-cultured for 24 hours.
After co-culture for 24 hours, cells were lyzed by using a lysis buffer contained in Dual-Luciferase Reporter Assay System (Cat. # E1910; Promega), and a substrate and ATP were mixed with each other, and then luminescence amount was measured by using Luminometer.

human DLL4 = target: T1, human DLL4 (Homo sapiens, UniProt Q9NR61); assay: Biacore affinity analysis to human DLL4; format: binding; settings: BIACORE 3000, CM5 chip, sample immobilized, DLL4 4.9-312.5 nM as antigen, FIG. 5
T1 construct: expressed in transfected cells; host or cells: 293 cells stably transfected with pcDNA-hDLL4 (293-DLL4 pool; clone 293-hDLL4)
Experimental: In order to calculate Kd (dissociation constant) of PMC-201 to human DLL4, BIACORE® 3000 (GE Healthcare) was used, and CM5 chip was used. The dissociation constant is similar to Km value, and is used as an affinity index of an enzyme to a substrate in an enzyme-substrate complex. The affinity between the enzyme and the substrate is increased as the dissociation constant is decreased.
The sample was immobilized by using 400 mM EDC (N-ethyl-N′-(dimethylaminopropyl) Carbodiimide), 100 mM NHS (N-Hydroxysuccinimide), and 1M ethanolamine hydrochloride (pH 8.5) that are an Amine Coupling Kit (GE Healthcare), and 20 mM sodium hydroxide as a generation buffer, and 1×PBS as an immobilization buffer were diluted, and then the analysis sample was 1:40 diluted in 10 mM acetate (pH 5.0) (GE Healthcare). The sample was immobilized at 4000RU (Response Unit). A buffer for measuring adsorption of the analysis sample was a HBS-EP buffer (GE Healthcare). DLL4s having measurement concentrations of 4.9, 9.7, 19.5, 39.1, 78.1, 156.3, 312.5 nM as an antigen were serial-diluted so as to have a final volume of 200 μl by using an HBS-EP buffer. Five concentrations of seven concentrations were selected and fitted. […] Affinity of the analysis sample was measured under conditions in which an analysis flow rate was 30 μl/min, a binding section was 60 seconds, and a dissociation was 300 seconds.

T1 sequence (Q9NR61 27-685): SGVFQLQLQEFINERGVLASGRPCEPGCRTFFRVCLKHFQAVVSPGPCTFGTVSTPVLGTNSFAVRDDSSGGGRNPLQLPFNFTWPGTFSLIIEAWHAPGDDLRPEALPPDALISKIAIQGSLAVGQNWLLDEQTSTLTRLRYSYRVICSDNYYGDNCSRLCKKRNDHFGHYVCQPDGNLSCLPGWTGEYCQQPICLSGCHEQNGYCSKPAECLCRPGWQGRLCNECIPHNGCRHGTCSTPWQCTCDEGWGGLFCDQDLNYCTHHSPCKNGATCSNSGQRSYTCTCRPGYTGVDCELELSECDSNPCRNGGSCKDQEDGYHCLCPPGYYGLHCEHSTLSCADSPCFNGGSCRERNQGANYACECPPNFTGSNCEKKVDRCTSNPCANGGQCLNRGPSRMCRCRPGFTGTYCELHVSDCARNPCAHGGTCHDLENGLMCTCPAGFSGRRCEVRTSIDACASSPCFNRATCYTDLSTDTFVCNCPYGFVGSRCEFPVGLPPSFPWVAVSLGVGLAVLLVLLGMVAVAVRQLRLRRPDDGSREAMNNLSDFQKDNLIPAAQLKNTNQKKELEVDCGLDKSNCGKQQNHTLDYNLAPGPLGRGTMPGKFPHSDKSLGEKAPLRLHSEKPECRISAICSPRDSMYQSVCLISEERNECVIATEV

Molecule	promoter activation of NICD exhibited by Notch-1 activation of LS174T cells (Notch-1)	affinity (Kd, dissociation constant) to human DLL4 (human DLL4)
C[C@H](NC(=O)Cc1cc(F)cc(F)c1)C(=O)N[C@H](C(=O)OC(C)(C)C)c1ccccc1 [DAPT, N—[N-(3,5-Difluorophenacetyl)-L-alanyl]-S-phenylglycine t-butyl ester]	decreased	–
B1	–	affinity was confirmed
